Measured values taken from patent publication US20020072535A1 (priority 1997, published 2002).

Legend:
Assay type in all cases: in vivo
Phytophthora infestans = assay: whole plant or invertebrate; conditions: in Solanum lycopersicum, 72 h, read-out: Efficiacy in %
Pythium sp. = Pythium sp. test (pea)/seed treatment; conditions: pea seed dressing, evaluation after 14 days
Description: Pythium sp. test (pea)/seed treatment
(§1) The active compounds are applied as dry seed dressings. These are prepared by extending the respective active compound or the active compound combination with ground minerals to give a finely pulverulent mixture which ensures uniform distribution on the seed surface.
(§2) To dress the seed, the infected seed together with the seed dressing is shaken for 3 minutes in a sealed glass flask.
2×50 corns of seed are sown at a depth of 2 cm in compost soil naturally infected with phythium sp. and cultivated in a greenhouse at a temperature of about 20° C. in seed trays which receive a light regimen of 15 hours per day.
Evaluation is carried out after 14 days. 0% means an efficacy which corresponds to that of the control, while an efficacy of 100% means that no infection is observed.

Fusarium nivale = Fusarium nivale test (triticale)/seed treatment; conditions: triticale seed dressing, about 3 weeks after sowing
Description: Fusarium nivale test (triticale)/seed treatment
as §1, §2
2×100 corns of triticale are sown at a depth of 1 cm in standard soil and cultivated in a greenhouse at a temperature of about 10° C. and a relative atmospheric humidity of about 95% in seed trays which receive a light regimen of 15 hours per day.
About 3 weeks after sowing, the plants are evaluated for symptoms. 0% means an efficacy which corresponds to that of the control, while an efficacy of 100% means that no infection is observed.

| SMILES | pest or weed control at 0.2 g/ha (Phytophthora infestans) [%] | further results |
| --- | --- | --- |
| O=C1c2ccccc2C(=O)N1SC(Cl)(Cl)Cl |  | pest or weed control at 2 g/ha (Phytophthora infestans): 12% |
| Cc1cc(C)nc(Nc2ccccc2)n1 |  | pest or weed control at 1 g/ha (Phytophthora infestans): 0% |
| Cc1cc(C2CC2)nc(Nc2ccccc2)n1 |  | pest or weed control at 1 g/ha (Phytophthora infestans): 0% |
| CO/C=C(/C(=O)OC)c1ccccc1Oc1cc(Oc2ccccc2C#N)ncn1 | 51 |  |
| CO/C=C(/C(=O)OC)c1ccccc1COc1ccccc1C | 0 |  |
| CO/N=C(\C1=NOCCO1)c1ccccc1Oc1ncnc(Oc2ccccc2Cl)c1F |  | pest or weed control at 1 g/ha (Phytophthora infestans): 27% |
| COc1ccc(C(=CC(=O)N2CCOCC2)c2ccc(Cl)cc2)cc1OC | 0 |  |
| CCNC(=O)NC(=O)C(C#N)=NOC | 0 |  |
| COCC(=O)N(c1c(C)cccc1C)C(C)C(=O)OC (centres unmarked) | 0 |  |
| CCC(C)(NC(=O)c1cc(Cl)c(C)c(Cl)c1)C(=O)CCl (centres unmarked) | 0 |  |
| Cc1ccc(C(C)NC(=O)C(NC(=O)OC(C)C)C(C)C)cc1 (centres unmarked) | 0 | pest or weed control at 1 g/ha (Phytophthora infestans): 0% |
| CC(C)(C)C(O)C(Oc1ccc(-c2ccccc2)cc1)n1cncn1 (centres unmarked) | 24 |  |
| CC(C)(C)C(O)(CCc1ccc(Cl)cc1)Cn1cncn1 (centres unmarked) | 0 |  |
| CC(C)(C)C(=O)C(Oc1ccc(Cl)cc1)n1cncn1 (centres unmarked) | 0 |  |
| CC(C)(C)C(O)C(Oc1ccc(Cl)cc1)n1cncn1 (centres unmarked) | 0 |  |
| OC(Cc1ccccc1Cl)(Cn1nc[nH]c1=S)C1(Cl)CC1 (centres unmarked) | 0 |  |
| CC1(C(=O)Nc2ccc(O)c(Cl)c2Cl)CCCCC1 |  | pest or weed control at 5 g/ha (Phytophthora infestans): 0% |
| Cc1noc(C)c1S(=O)(=O)n1c(Br)nc2cc3c(cc21)OC(F)(F)O3 [(Ia), 1-(3,5-dimethyl-isoxazole-4-sulphonyl)-2-bromo6,6-difluoro[1,3]-dioxolo-[4,5f]-benzimidazole] | 14 | pest or weed control at 1 g/ha (Phytophthora infestans): 65%; Efficacy in % (Pythium sp.; 500 mg/kg of seed): 1%; Efficacy in % (Fusarium nivale; 100 mg/kg of seed): 26% |
| Cc1noc(C)c1S(=O)(=O)n1c(Cl)nc2cc3c(cc21)OC(F)(F)O3 [(Ib), 1-(3,5-dimethyl-isoxazole-4-sulphonyl)-2-chloro-6,6-difluoro-[1,3]-dioxolo-[4,5f]-benzimidazole] | 37 | pest or weed control at 1 g/ha (Phytophthora infestans): 76%; Efficacy in % (Pythium sp.; 1000 mg/kg of seed): 4%; Efficacy in % (Fusarium nivale; 100 mg/kg of seed): 0%; Efficacy in % (Fusarium nivale; 500 mg/kg of seed): 0% |
| O=[N+]([O-])/N=C1\NCCN1Cc1ccc(Cl)nc1 [(XXII), 1-[(6-chloro-3-pyridinyl)-methyl]-N-nitro-2-imidazolidineimine] |  | Efficacy in % (Fusarium nivale; 100 mg/kg of seed): 0% |
| O=[N+]([O-])/N=C1\NCCN1Cc1ccc(Cl)nc1 [drawing 67] | 6 |  |
